From ChEMBL document CHEMBL1201862, “PubChem BioAssay data set” (2004)
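Briefly, cells in 96-well plates were exposed to five compound concentrations for 48 h, and endpoints were estimated by linear interpolation. Here, GI50 denotes the concentration required for 50% inhibition of growth.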 Calls of active or inactive are those of the source. Cut-off read from the data, not from the text of the source: active = GI50 up to about 1.1 µM and inactive = higher.

Tests used:
Assay in all cases: NCI tumour cell line growth inhibition, 48 h
786-0 = tested on: 786-0
A549 = tested on: A549
ACHN = tested on: ACHN
CCRF-CEM = tested on: CCRF-CEM
DU-145 = tested on: DU-145
EKVX = tested on: EKVX
HL-60 = tested on: HL-60
HT-29 = tested on: HT-29
KM12 = tested on: KM12
MDA-N = tested on: MDA-N
MOLT-4 = tested on: MOLT-4
NCI-H226 = tested on: NCI-H226
NCI/ADR-RES = tested on: NCI/ADR-RES
OVCAR-8 = tested on: OVCAR-8
RPMI-8226 = tested on: RPMI-8226
SF-268 = tested on: SF-268
SK-MEL-5 = tested on: SK-MEL-5
Malme-3M = tested on: Malme-3M
U-251 = tested on: U-251
HCC 2998 = tested on: HCC 2998

| Structure (SMILES) | GI50 (786-0) | GI50 (A549) | GI50 (ACHN) | GI50 (CCRF-CEM) | GI50 (DU-145) | GI50 (EKVX) | GI50 (HL-60) | GI50 (HT-29) | GI50 (KM12) | GI50 (MDA-N) | GI50 (MOLT-4) | GI50 (NCI-H226) | GI50 (NCI/ADR-RES) | GI50 (OVCAR-8) | GI50 (RPMI-8226) | GI50 (SF-268) | GI50 (SK-MEL-5) | GI50 (Malme-3M) | GI50 (U-251) | GI50 (HCC 2998) |
| --- | --- | --- | --- | --- | --- | --- | --- | --- | --- | --- | --- | --- | --- | --- | --- | --- | --- | --- | --- | --- |
| CCOC(=O)c1c(N=C(S)Nc2ccccc2)sc2c1CCN(C)C2 | > 100 µM (inactive) | > 100 µM (inactive) | > 100 µM (inactive) | > 100 µM (inactive) | > 100 µM (inactive) | > 100 µM (inactive) | > 100 µM (inactive) | > 100 µM (inactive) | > 100 µM (inactive) | > 100 µM (inactive) | > 100 µM (inactive) | > 100 µM (inactive) | > 100 µM (inactive) | > 100 µM (inactive) | > 100 µM (inactive) | > 100 µM (inactive) | > 100 µM (inactive) | – | – | – |
| CC[C@]12C=CCN3CC[C@@]4(c5cc(Br)c(OC)c([N+](=O)[O-])c5N(C)[C@H]4[C@@](O)(C(=O)OC)[C@@H]1OC(C)=O)[C@@H]32 | 94.6 µM (inactive) | 39.8 µM (inactive) | 62.4 µM (inactive) | 24.7 µM (inactive) | 98.2 µM (inactive) | 29.6 µM (inactive) | 33.7 µM (inactive) | > 100 µM (inactive) | 47.6 µM (inactive) | 37.2 µM (inactive) | 13.2 µM (inactive) | 21.8 µM (inactive) | 48.1 µM (inactive) | 30.5 µM (inactive) | 6.52 µM (inactive) | 30.1 µM (inactive) | 36.2 µM (inactive) | 89.5 µM (inactive) | 43.4 µM (inactive) | – |
| COc1ccc(/C=C2\C[C@H]3[C@@H]4CCC5=C/C(=N/O)CC[C@]5(C)[C@H]4CC[C@]3(C)\C2=N\O)cc1 | 13.1 µM (inactive) | 5.01 µM (inactive) | 5.52 µM (inactive) | – | 13.4 µM (inactive) | 12.5 µM (inactive) | < 0.01 µM (active) | 6.85 µM (inactive) | 12.2 µM (inactive) | 15.6 µM (inactive) | 6.7 µM (inactive) | 19.1 µM (inactive) | 8.18 µM (inactive) | 9.42 µM (inactive) | 5.12 µM (inactive) | 16.9 µM (inactive) | 11 µM (inactive) | 34.1 µM (inactive) | 25.3 µM (inactive) | 15.8 µM (inactive) |
| CC1CCc2sc3nc(S)n(C)c(=O)c3c2C1 (stereo unspecified) | 50.8 µM (inactive) | 33.6 µM (inactive) | 37.3 µM (inactive) | – | 50.8 µM (inactive) | 19 µM (inactive) | 2.85 µM (inactive) | 40 µM (inactive) | 42.8 µM (inactive) | 44 µM (inactive) | 41.4 µM (inactive) | 26.7 µM (inactive) | 36.1 µM (inactive) | 39.5 µM (inactive) | 36.7 µM (inactive) | 48.1 µM (inactive) | 35.1 µM (inactive) | 53.6 µM (inactive) | 41.8 µM (inactive) | 22.2 µM (inactive) |
| CC12c3c4cc(Br)cc3Oc3cc(Br)cc(c31)Oc1cc(Br)cc(c12)O4 | 19.8 µM (inactive) | 44.8 µM (inactive) | 51.9 µM (inactive) | – | 16.4 µM (inactive) | 19.7 µM (inactive) | – | 76.9 µM (inactive) | 58.5 µM (inactive) | 41.1 µM (inactive) | 23.1 µM (inactive) | 11.2 µM (inactive) | 19.8 µM (inactive) | 55 µM (inactive) | 19.4 µM (inactive) | 10.5 µM (inactive) | 27.6 µM (inactive) | 19.9 µM (inactive) | 62.1 µM (inactive) | 81.5 µM (inactive) |
| COc1cc2c3c(c1O)-c1c(ccc(OC)c1OC)CC3N(C)CC2 (stereo unspecified) | > 100 µM (inactive) | > 100 µM (inactive) | > 100 µM (inactive) | 91.4 µM (inactive) | > 100 µM (inactive) | > 100 µM (inactive) | 40.9 µM (inactive) | 77.4 µM (inactive) | > 100 µM (inactive) | > 100 µM (inactive) | > 100 µM (inactive) | > 100 µM (inactive) | > 100 µM (inactive) | > 100 µM (inactive) | > 100 µM (inactive) | > 100 µM (inactive) | > 100 µM (inactive) | – | > 100 µM (inactive) | – |
| COc1ccc2c(-c3ccc(OCCN(C)C)cc3)c(Oc3ccc(Cl)cc3)c(=O)oc2c1 | 2.59 µM (inactive) | 4.48 µM (inactive) | 7.23 µM (inactive) | 4.42 µM (inactive) | 13.7 µM (inactive) | 11.5 µM (inactive) | – | 6.56 µM (inactive) | 3.66 µM (inactive) | 2.06 µM (inactive) | 2.13 µM (inactive) | 23.9 µM (inactive) | 9.16 µM (inactive) | 8.36 µM (inactive) | 4.05 µM (inactive) | 7.76 µM (inactive) | 1.64 µM (inactive) | 1.74 µM (inactive) | 3.4 µM (inactive) | 2.83 µM (inactive) |
| O=C(O)C(O)c1ccc(F)cc1 (stereo unspecified) | > 100 µM (inactive) | > 100 µM (inactive) | > 100 µM (inactive) | – | > 100 µM (inactive) | > 100 µM (inactive) | – | > 100 µM (inactive) | > 100 µM (inactive) | > 100 µM (inactive) | > 100 µM (inactive) | – | > 100 µM (inactive) | > 100 µM (inactive) | > 100 µM (inactive) | > 100 µM (inactive) | – | > 100 µM (inactive) | > 100 µM (inactive) | – |
| O=C1CSC(c2c[nH]c3ccccc23)N1c1ccc(Cl)cc1Cl (stereo unspecified) | > 100 µM (inactive) | > 100 µM (inactive) | – | > 100 µM (inactive) | > 100 µM (inactive) | > 100 µM (inactive) | > 100 µM (inactive) | > 100 µM (inactive) | > 100 µM (inactive) | > 100 µM (inactive) | > 100 µM (inactive) | – | > 100 µM (inactive) | > 100 µM (inactive) | > 100 µM (inactive) | > 100 µM (inactive) | > 100 µM (inactive) | – | > 100 µM (inactive) | > 100 µM (inactive) |
| CC(C)(CC(=O)Nc1ccccc1)C(=O)O | > 100 µM (inactive) | > 100 µM (inactive) | > 100 µM (inactive) | > 100 µM (inactive) | > 100 µM (inactive) | > 100 µM (inactive) | > 100 µM (inactive) | > 100 µM (inactive) | > 100 µM (inactive) | > 100 µM (inactive) | > 100 µM (inactive) | > 100 µM (inactive) | > 100 µM (inactive) | > 100 µM (inactive) | > 100 µM (inactive) | – | > 100 µM (inactive) | – | > 100 µM (inactive) | – |
| N=c1c2ccccc2nc2oc3ccc(Cl)cc3n12 | 3.94 µM (inactive) | 12.9 µM (inactive) | 11.5 µM (inactive) | 43.9 µM (inactive) | – | 15.6 µM (inactive) | – | 20.3 µM (inactive) | > 100 µM (inactive) | 65.6 µM (inactive) | 35.3 µM (inactive) | 17.8 µM (inactive) | 48.3 µM (inactive) | 9.66 µM (inactive) | 4.4 µM (inactive) | 34.2 µM (inactive) | 37.8 µM (inactive) | 10.8 µM (inactive) | 5.38 µM (inactive) | > 100 µM (inactive) |
| COC(=O)C1=C(C(=O)OC)C(C(=O)OC)C(C(=O)OC)C(C(=O)OC)(C(=O)OC)C(C(=O)OC)=C1C(=O)OC (stereo unspecified) | 9.14 µM (inactive) | 21.2 µM (inactive) | 14.7 µM (inactive) | 2.77 µM (inactive) | 18.2 µM (inactive) | 18.3 µM (inactive) | 1.97 µM (inactive) | 13.3 µM (inactive) | 17.1 µM (inactive) | 17.1 µM (inactive) | 2.59 µM (inactive) | 15.9 µM (inactive) | – | 11.8 µM (inactive) | 2.24 µM (inactive) | 19 µM (inactive) | 17.2 µM (inactive) | 5.77 µM (inactive) | 16.9 µM (inactive) | 16.9 µM (inactive) |
| CCCC#CCOC(=O)c1cc([N+](=O)[O-])cc([N+](=O)[O-])c1 | > 100 µM (inactive) | > 100 µM (inactive) | > 100 µM (inactive) | > 100 µM (inactive) | > 100 µM (inactive) | > 100 µM (inactive) | > 100 µM (inactive) | > 100 µM (inactive) | > 100 µM (inactive) | 47.3 µM (inactive) | > 100 µM (inactive) | – | > 100 µM (inactive) | > 100 µM (inactive) | > 100 µM (inactive) | > 100 µM (inactive) | 52 µM (inactive) | 19.9 µM (inactive) | > 100 µM (inactive) | > 100 µM (inactive) |
| CNC(=O)OCC1=C(COC(=O)NC)CN(c2ccccc2)C1 | > 100 µM (inactive) | > 100 µM (inactive) | > 100 µM (inactive) | > 100 µM (inactive) | > 100 µM (inactive) | > 100 µM (inactive) | – | > 100 µM (inactive) | > 100 µM (inactive) | > 100 µM (inactive) | > 100 µM (inactive) | > 100 µM (inactive) | > 100 µM (inactive) | > 100 µM (inactive) | > 100 µM (inactive) | > 100 µM (inactive) | > 100 µM (inactive) | > 100 µM (inactive) | > 100 µM (inactive) | > 100 µM (inactive) |
| Cc1cccc2c1CC1(Cc3c(C)cccc3C1=O)C2=O | > 100 µM (inactive) | > 100 µM (inactive) | > 100 µM (inactive) | > 100 µM (inactive) | > 100 µM (inactive) | > 100 µM (inactive) | > 100 µM (inactive) | > 100 µM (inactive) | – | > 100 µM (inactive) | > 100 µM (inactive) | – | > 100 µM (inactive) | > 100 µM (inactive) | > 100 µM (inactive) | > 100 µM (inactive) | > 100 µM (inactive) | > 100 µM (inactive) | > 100 µM (inactive) | > 100 µM (inactive) |
